Experimental findings from patent US20080221158A1, “Novel 14 and 15 Membered Ring Compounds” (PLIVA - Istrazivacki Institut d.o.o, priority 2003, published 2008) are described below.

Each structure is given as a SMILES string.

What all share (experiment): MIC against various organisms (broth dilution)
What all share (assay type): cell-based
(In general: Broth dilution looks for growth in wells or tubes with falling amounts of substance.)

For experiment [1], the system named is E. faecalis ATCC 29212. To be noted: Enterococcus faecalis, ATCC29212. Here is the method:
(§1) Using a standard broth dilution method in microtitre, compounds were tested for antibacterial activity. The compounds in the above examples gave minimum inhibitory concentrations (MICS) less than 1 microgram per millilitre against erythromycin-sensitive and erythromycin-resistant strains of Streptococcus pneumoniae and Streptococcus pyogenes.
(§2) In addition, the MIC (1 μg/mL) of test compounds against various organisms was determined including:
(§3) S. aureus Smith ATCC 13709, S. pnetnioniae SP030, S. pyogenes 3565, E. faecalis ATCC 29212, H. influenza ATCC 49247, M. catarrhalis ATCC 23246.

Experiment [2] deals with H. influenzae ATCC 49247. To be noted: Haemophilus influenzae, ATCC49247. Here is the method: as §1, §2, §3
Experiment [3] relates to M. catarrhalis ATCC 23246. To be noted: Moraxella catarrhalis, ATCC23246. On the procedure: as §1, §2, §3
The subject of experiment [4] is S. aureus Smith ATCC 13709. To be noted: Staphylococcus aureus, ATCC13709. Here is the method:
as §1, §2, §3

The test system of experiment [5] is S. pneumoniae SP030. To be noted: Streptococcus pneumoniae. On the procedure:
as §1, §2, §3

For experiment [6], the system named is S. pyogenes 3565. To be noted: Streptococcus pyogenes. Here is the method:
as §1, §2, §3

Regarding `CC[C@H]1OC(=O)[C@H](C)[C@@H](O[C@H]2C[C@@](O)(OC)[C@@H](NC(=O)CCOCCNc3cc4c(=O)c(C(=O)O)cn(C5CC5)c4cc3Cl)[C@H](C)O2)[C@H](C)[C@@H](OC2O[C@H](C)C[C@H](N(C)C)[C@H]2O)[C@](C)(O)C[C@@H](C)CN(C)[C@H](C)[C@@H](O)[C@]1(C)O` (stereo partly drawn) [Example 1], the MIC is less than 1 µg/mL in experiment [1]; less than 2 µg/mL in experiment [2]; less than 2 µg/mL in experiment [3]; less than 1 µg/mL in experiment [4]; less than 1 µg/mL in experiment [5]; less than 1 µg/mL in experiment [6].

In the case of `CC[C@@H]1OC(=O)[C@H](C)[C@H](O[C@@H]2C[C@@](O)(OC)[C@@H](NC(=O)CCOCCOc3cc4c(=O)c(C(=O)O)cn(C5CC5)c4cc3Cl)[C@H](C)O2)[C@@H](C)[C@H](O[C@@H]2O[C@H](C)C[C@H](N(C)C)[C@@H]2O)[C@](C)(O)C[C@H](C)CN(C)[C@H](C)[C@@H](O)[C@]1(C)O` [Example 3, 4″-(S)-(3-[2-(3-Carboxy-7-chloro-1-cyclopropyl-4-oxo-1,4-dihydro-quinolin-6-yloxy)ethoxy]-propionylamino]-4″-deoxyazithromycin], the MIC in experiment [1] was less than 1 µg/mL; in experiment [2] it was less than 2 µg/mL; in experiment [3] it was less than 2 µg/mL; in experiment [4] it was less than 1 µg/mL; in experiment [5], less than 1 µg/mL; in experiment [6] it was less than 1 µg/mL.

Regarding `CC[C@H]1OC(=O)[C@H](C)[C@@H](O[C@H]2C[C@@](O)(OC)[C@@H](NC(=O)CCOCCNc3cc4c(=O)c(C(=O)O)cn(C5CC5)c4cc3Cl)[C@H](C)O2)[C@H](C)[C@@H](O[C@@H]2O[C@H](C)C[C@H](N(C)C)[C@H]2O)[C@](C)(O)C[C@@H](C)CN(C)[C@H](C)[C@@H](O)[C@]1(C)O` [Example 2], the MIC in experiment [1] is less than 1 µg/mL; in experiment [2], less than 2 µg/mL; in experiment [3], less than 2 µg/mL; in experiment [4], less than 1 µg/mL; in experiment [5], less than 1 µg/mL; in experiment [6] it was less than 1 µg/mL.
